The results in this text go back to patent US7632679B2, “Systems and methods for screening for modulators of neural differentiation” (The Trustees of Columbia University in the City of New York, priority 2002, dated 2009).

Entries after “also recorded” stand apart in the source; their conditions may differ.

Data set [1] relates to ES cells / embryoid bodies. Briefly: Suppression and induction of a neural character in differentiating embryoid bodies. It counts as cell-based, mouse. The note with it: for acquisition of neural precursor cell fate (Sox1): 4 days of differentiation, factor present for entire culture (Wnt3a conditioned medium 1×, BMP4 10 ng/ml, SU5402 5 μM); for neural precursor or post-mitotic neural cells: EBs differentiated 4 days with RA+Wnt3a or RA+BMP4. The procedure:
(§1) Medium was replaced every 2 days. Medium was supplemented by factors, at the start of ES-cell aggregation/differentiation (day 0) or on day 2, as indicated below, and cultured for a further 2-8 days.
(§2) Soluble Wnt3a and control-conditioned medium (Wilson et al., The status of Wnt signaling regulates neural and epidermal fates in the chick embryo. Nature, 411:325-30, 2001) were prepared, as previously described (Shibamoto et al., Cytoskeletal reorganization by soluble Wnt-3a protein signalling. Genes Cells, 3:659-70, 1998). Soluble Frizzled 8 (mFrz8CRD-IgG) and control-conditioned medium were prepared by transfecting HEK-293 cells with mfz8CRD-IgG (Hsieh et al., Biochemical characterization of Wnt-frizzled interactions using a soluble, biologically active vertebrate Wnt protein. Proc. Natl. Acad. Sci. USA, 96:3546-51, 1999) or LacZ reporter construct (Wilson et al., An early requirement for FGF signalling in the acquisition of neural cell fate in the chick embryo. Curr. Biol., 10:421-29, 2000). The transfected HEK-293 cells were then incubated for 48 h in OPTI-MEM medium. mFrzCRD-1gG conditioned medium was used undiluted.
Immunohistochemical localization of proteins was performed, as previously described (Yamada et al., Control of cell pattern in the developing nervous system: polarizing activity of the floor plate and notochord. Cell, 64:635-47, 1991). Neural precursor (neural progenitor) cells were delineated by expression of rabbit anti-Sox1. Post-mitotic neurons were delineated using mouse anti-Pax6. Otx1/Otx2 and Eng1, which are co-expressed at the midbrain/hindbrain boundary, were used to define cells of a midbrain-like character (Davis and Joyner, Expression patterns of the homeo box-containing genes En-1 and En-2 and the proto-oncogene int-1 diverge during mouse development. Genes Dev., 2:1736-44, 1988). Hox C6 and HoxC8 were used to delineate cells of a spinal-cord character. Krox20 (Covance) is expressed in hindbrain cells, in regions fated to give rise to rhombomeres 3 and 5; thus, co-expression of Sox1 and Otx1/Otx2, in the absence of Eng1 or Krox 20, was used to delineate an anterior/prosencephalic character (Lemaire and Kessel, Gastrulation and homeobox genes in chick embryos. Mech. Dev., 67:3-16, 1997).
In control experiments, 15-30% of cells attained a neural-cell fate when subjected to aggregation in differentiation medium. To suppress a neural-cell fate, medium was supplemented by Wnt3a conditioned medium (1×), BMP4 (10 ng/ml), or SU5402 (5 μM), at the start of ES-cell aggregation (day 0). To induce a neural-cell fate, medium was supplemented by mFRZ8CRD conditioned medium (2×) at the start of ES-cell aggregation (day 0). ES cells were differentiated for 4-8 days.

Data set [2] relates to ES-cell-derived embryoid bodies. Nature of the data set: HB9+ motor neuron generation in embryoid bodies. It counts as cell-based, mouse. The method, then:
(§3) For some experiments, ES cells were grown on a monolayer of stromal PA6 cell line (Riken Cell Bank, Japan), in DFK5 medium alone, or supplemented with 2 μM RA, as described (Kawasaki et al., Induction of midbrain dopaminergic neurons from ES cells by stromal cell-derived inducing activity. Neuron, 28:31-40, 2000).
To begin to examine the capacity of mouse ES cells to generate motor neurons, the inventors grew mouse ES cells in aggregate culture for 2 days, a procedure that results in the formation of embryoid bodies (EBs) (Bain et al., Embryonic stem cells express neuronal properties in vitro. Dev. Biol., 168:342-57, 1995).

The test system of data set [3] is neural progenitor cells in embryoid bodies. Briefly: Progenitor transcription factor expression (ventralization) in RA-exposed embryoid bodies. It counts as cell-based, mouse.
A further data set deals with HBG3 ES cells. Briefly: eGFP+ motor neuron generation in HBG3 ES-cell-derived embryoid bodies. It counts as cell-based, mouse. The method, then: as §3
A transgenic mouse line was established by pronucleus injection of a construct that used a ˜9 kB fragment comprising the 5′ upstream region of the murine HB9 gene (Arber et al., Requirement for the homeobox gene Hb9 in the consolidation of motor neuron identity. Neuron, 23:659-764, 1999), followed by a 5′ splice substrate (Choi et al., A generic intron increases gene expression in transgenic mice. Mol. Cell Biol., 11:3070-74, 1991), an eGFP gene, and a bovine growth hormone polyadenylation signal. The ˜9 kB Not1 fragment of HB9 is sufficient to direct eGFP expression to develop motor neurons in transgenic embryos examined from E9.5 to P10. In one transgenic line (mHB9-Gfp1b), the pattern of eGFP expression corresponded closely to the profile of expression of endogenous HB9. ES-cell lines were derived from mHB9-Gfp1b heterozygous blastocysts, as previously described (Abbondanzo et al., Derivation of embryonic stem cell lines. Methods Enzymol., 225:803-23, 1993). One selected line (HBG3) was tested for its capacity to integrate into developing mouse blastocysts and its capacity for germline transmission.
HBG3 ES-cell embryoid bodies were dissociated using a papain dissociation system (Worthington Biochemical Corp.). Cells expressing high levels of eGFP were sorted from the cell suspension with a Beckman-Coulter Altra flow cytometer, based on their eGFP fluorescence and forward light scatter using the gate indicated in the plot. Typically, 20-30% of input cells expressed high levels of GFP. The analysis established that this eGFP-Hi cell group constituted a >95% pure population of motor neurons. The yield of a typical FACS sort is 3000-5000 GFP-Hi cells per EB.

Data set [4] has as its system ES-cell-derived neural precursor cells. Nature of the data set: Caudalization of a neural character by Wnt3a. It counts as cell-based, mouse. Conditions: Wnt3a at different concentrations and/or times; 2 days differentiation medium, then 2 days with Wnt3a. The procedure: as §1, §2
Immunohistochemical localization of proteins was performed, as previously described (Yamada et al., Control of cell pattern in the developing nervous system: polarizing activity of the floor plate and notochord. Cell, 64:635-47, 1991). […]

The test system of the next data set is mouse ES cells. Briefly: Directed differentiation of ES cells into LH2-positive dorsal spinal neurons. It counts as cell-based. The note with it: embryoid bodies grown in the presence of BMP7. The method, then:
Embryonic stem (ES) cells were grown on mouse embryonic fibroblasts in ES-cell medium, as described in Example 1. ES-cell colonies were partially dissociated with 0.05% trypsin/EDTA, after 2 days, and cultured in DFNB medium (neurobasal medium (Gibco) mixed with DMEM (Specialty Media, EmbryoMax) and F12 (Gibco), in a 2:1:1 ratio, supplemented with 1×B27 supplement, 0.1 mM 2-mercaptoethanol (Sigma), 2 mM L-glutamine (Gibco), and 1× penicillin/streptomycin (Gibco)) (˜10^5 cells/ml).
After 2 days in culture, embryoid bodies (EBs) were plated in DFNB medium supplemented with retinoic acid (100 nM to 1 μM) (Sigma). After 1-2 days in culture, in the presence of retinoic acid, EBs were collected, rinsed 2-3 times with PBS, and plated in DFNB medium supplemented with human BMP4 (10 ng/ml; R&D systems) or BMP7 (20 ng/ml). After an additional 4 days in culture, cells were fixed using 4% paraformaldehyde, and processed for immunocytochemistry.

The mark [5] stands for this setting: RA-treated EBs, 10 nM Hh-Ag1.3, 3 days.

`Cc1c[nH]c(/C=C2\C(=O)Nc3ccccc32)c1CCC(=O)O` [SU5402]: in data set [1], the “acquisition of neural precursor cell fate (Sox1)” value (“acquisition” below) was “could not acquire a neural precursor cell fate”.

In the case of `CC1=C(/C=C/C(C)=C/C=C/C(C)=C/C(=O)O)C(C)(C)CCC1` [RA, retinoic acid], the “HB9+ neurons per section” value in data set [2] (RA-exposed EBs grown alone for 5 days) was found to be 7±2 HB9^+ neurons/section.

Take `CNC1CCC(N(Cc2cccc(-c3ccncc3)c2)C(=O)c2sc3ccccc3c2Cl)CC1` (centres unmarked) [Hh-Ag1.3]: the “HB9+ neurons in EBs” value in data set [2] (Hh-Ag1.3 (1 μM) for 5 days without RA) is listed as “No HB9^+ neurons were generated; also recorded: did not contain HB9^+ neurons”. Also, in data set [2] (RA-treated EBs plus SHh (300 nM) or Hh-Ag1.3 (1 μM)), the “HB9+ neurons per section” value stood at 509±57 HB9^+ neurons/section. Also, in data set [2] (RA-treated EBs plus SHh (300 nM) or Hh-Ag1.3 (1 μM), ~10-15 sections per EB), the “HB9+ neurons per EB” value came out at 5000 HB9^+ neurons. The “BrdU incorporation by Olig2+ cells” value in data set [3] (Hh-Ag1.3-exposed EBs, 3 days with RA) is “incorporated BrdU”. For the same molecule, in data set [3] (setting [5]), the “Nkx6.1+ and Olig2+ cells” value is “a few Nkx6.1^+ and Olig2^+ cells were detected”; the Pax7 expression entry was “completely repressed”; the “number of Dbx1+ cells” value is “reduced”; the “number of Pax6+ and Irx3+ cells” value is given as “increased”. Moreover, in data set [3] (RA-treated EBs, 1 μM Hh-Ag1.3), the Dbx1 expression result is on record as “virtually eliminated”; the “HNF3β+ floor plate cells” value is “no HNF3β^+ floor plate cells were detected”; the “Nkx2.2+ cells” value is reported as “a few Nkx2.2^+ cells were also induced”; the “number of Irx3+ and Pax6+ cells” value is given as “markedly reduced”. Moreover, the “number of Nkx6+ and Olig2+ cells” value in data set [3] (RA-treated EBs, 1 μM Hh-Ag1.3) is “large increase”. The “toxicity for cells differentiating in EBs” value in the data set on HBG3 ES cells (10 μM Hh-Ag1.3) is on record as “became toxic for cells differentiating in EBs”. In the data set with HBG3 ES cells (Hh-Ag1.3 (1 μM) in the absence of RA), the “generation of eGFP+/HB9+ motor neurons” value was “failed to generate eGFP^+/HB9^+ motor neurons”. In addition, the “eGFP+/HB9+ motor neurons as share of total cells in EBs” value in the data set with HBG3 ES cells (RA and 1 μM Hh-Ag1.3) is recorded as 20-30%. For the same molecule, the “cells in EBs expressing eGFP” value in the data set on HBG3 ES cells (RA plus 2.2 μM Hh-Ag1.3, 5 days) was determined as 22.5%. For the same molecule, the “number of eGFP+/HB9+ motor neurons” value with HBG3 ES cells (RA-exposed HBG3 EBs plus Hh-Ag1.3, concentration-dependent (0 to 2.2 μM)) is given as “increased”.

As for Wnt3a, in data set [4], the “caudalization of neural cells” value is “progressively caudalized to hindbrain and spinal cord character”. In data set [1], the “acquisition” value is “could not acquire a neural precursor cell fate” and the “neural precursor or post-mitotic neural cells” value was “no neural precursor or post-mitotic neural cells were present”.

B1: BMP7: bone morphogenetic protein 7 (protein, UniProt P18075 293-431, looked up)
Bone morphogenetic protein 7: STGSKQRSQNRSKTPKNQEALRMANVAENSSSDQRQACKKHELYVSFRDLGWQDWIIAPEGYAAYYCEGECAFPLNSYMNATNHAIVQTLVHFINPETVPKPCCAPTQLNAISVLYFDDSSNVILKKYRNMVVRACGCH
Regarding B1, the “dorsal spinal neurons (LH2) and their progenitors (Math1)” value in the data set with mouse ES cells is “numerous dorsal neurons and their progenitors were observed”.

B2: BMP4: human BMP4 protein (bone morphogenetic protein), R&D systems (protein, UniProt P12644 293-408, looked up)
Bone morphogenetic protein 4: SPKHHSQRARKKNKNCRRHSLYVDFSDVGWNDWIVAPPGYQAFYCHGDCPFPLADHLNSTNHAIVQTLVNSVNSSIPKACCVPTELSAISMLYLDEYDKVVLKNYQEMVVEGCGCR
With B2, in data set [1], the “acquisition” value is given as “could not acquire a neural precursor cell fate” and the “neural precursor or post-mitotic neural cells” value is on record as “no neural precursor or post-mitotic neural cells were present”.
